Results from patent US20220174947A1, “ANTIMICROBIAL MIXTURE CONTAINING 4-(3-ETHOXY-4-HYDROXYPHENYL)BUTAN-2-ONE AND AN ALCOHOL COMPOUND, AND COSMETIC COMPOSITION CONTAINING SAME” (L'OREAL, priority 2018, published 2022).

Assays:
Assay in all cases: Synergistic antimicrobial activity as MIC, 96-well microplate, optical density at 620 nm
Assay type in all cases: cell-based
[1] = test system: Enterococcus faecalis ATCC 33186; conditions: for % MIC of A alone: Enterococcus faecalis, growth <= 25%
From the text: (§1) FIC Index=(MIC of A with B/MIC of A)+(MIC of B with A/MIC of B [Math. 1]
(§2) with: • MIC of A with B: minimum concentration of product A in the combination A+B which makes it possible to obtain an inhibitory effect; • MIC of B with A: minimum concentration of product B in the combination A+B which makes it possible to obtain an inhibitory effect; • MIC of A: minimum inhibitory concentration of product A alone; • MIC of B: minimum inhibitory concentration of product B alone. This formula was described for the first time in the article by F. C. Kull, P. C. Eisman, H. D. Sylwestrowka, and R. L. Mayer, Applied Microbiology 9:538-541, 1961.
The microbial strain Enterococcus faecalis ATCC 33186 and a double-concentration BHI (Brain Heart Infusion) broth liquid culture medium were used.
(§3) A 96-well microplate at an incubation temperature of 32.5° C. is used.
(§4) The incubation time of the microplate is: • from 24 to 30 h under aerobic conditions for microbial Aspergillus niger ATCC 6275; • from 18 to 24 h under aerobic conditions for Candida albicans ATCC 10231, Pseudomonas aeruginosa ATCC 9027 and Staphylococcus aureus ATCC 6538; • from 24 to 48 h under aerobic conditions for Enterococcus faecalis ATCC 33186.
(§5) For each compound: A=4-(3-ethoxy-4-hydroxyphenyl) butan-2-one compound B=alcohol compound A 10% (weight/volume) stock solution was prepared by mixing 1 g of compound in 9 ml of aqueous 1% agar solution. Successive dilutions were made with the 1% agar solution.
(§6) 50 μl of each of the daughter solutions obtained containing compound A or B are added to the microplate wells. 100 μl of Sabouraud liquid nutrient broth inoculated at double concentration with the Aspergillus niger strain and 50 μl of aqueous 1% agar solution are also added thereto.
(§7) 50 μl of each of the daughter solutions obtained containing compound A and 50 μl of each of the daughter solutions obtained containing compound B are added to the microplate wells. 100 μl of Sabouraud liquid nutrient broth inoculated at double concentration with the strain Aspergillus niger are also added thereto.
(§8) A positive microbial growth control was also prepared. The positive microbial growth control corresponds to a mixture of 100 μl of aqueous 1% agar solution with 100 μl of Sabouraud liquid nutrient broth inoculated at double concentration with the strain Aspergillus niger in the absence of compounds A and B.
(§9) An absorbance control was performed in parallel on compounds A and B alone. This control corresponds to 100 μl of double concentration sterile Sabouraud liquid nutrient broth+100 μl of double concentration compound A or B.
(§10) In the three cases (absorbance control, growth control and test), the final volume present in each of the microplate wells is 200 μl.
The test as described above (tests, absorbance control and growth control) was performed again to test the combination A+B on the following strains Enterococcus faecalis, Staphylococcus aureus, Pseudomonas aeruginosa, Candida albicans, where appropriate.

[2] = test system: Aspergillus niger ATCC 6275; conditions: for % MIC of A alone: Aspergillus niger, growth <= 25%
From the text: as §1, §2
The microbial strain Aspergillus niger ATCC 6275, and a double-concentration Sabouraud broth liquid culture medium supplemented with polyoxyethylenated (20 OE) sorbitan monopalmitate (Tween 40 from Croda) and Phytagel© BioReagent were used (i.e. a mixture of 5 g of Phytagel+0.6 g of Tween 40+60 g of Sabouraud broth).
as §3, §4, §5, §6, §7, §8, §9, §10
In the two cases (test and control), the inoculum represents the concentration of the Aspergillus niger strain present in the final volume of the wells (200 μl) and is between 2 and 6×10^5 cfu/ml of Aspergillus niger.

[3] = test system: Pseudomonas aeruginosa ATCC 9027; conditions: for % MIC of A alone: Pseudomonas aeruginosa, growth <= 25%
From the text: with: • MIC of A with B: minimum concentration of product A in the combination A+B which makes it possible to obtain an inhibitory effect; • MIC of B with A: minimum concentration of product B in the combination A+B which makes it possible to obtain an inhibitory effect; • MIC of A: minimum inhibitory concentration of product A alone; • MIC of B: minimum inhibitory concentration of product B alone. This formula was described for the first time in the article by F. C. Kull, […], and R. L. Mayer, Applied Microbiology 9:538-541, 1961. […] When the FIC index value is less than or equal to 1, it is considered that the combination of test compounds has a synergistic effect. The microbial strain Pseudomonas aeruginosa ATCC 9027 and a double-concentration nutrient broth liquid culture medium were used. A 96-well microplate at an incubation temperature of 32.5° C. is used. […] For each compound: […] 50 μl of each of the daughter solutions obtained containing compound A and 50 μl of each of the daughter solutions obtained containing compound B are added to the microplate wells. 100 μl of Sabouraud liquid nutrient broth inoculated at double concentration with the strain Aspergillus niger are also added thereto. A positive microbial growth control was also prepared. […] An absorbance control was performed in parallel on compounds A and B alone. This control corresponds to 100 μl of double concentration sterile Sabouraud liquid nutrient broth+100 μl of double concentration compound A or B. […] The test as described above (tests, absorbance control and growth control) was performed again to test the combination A+B on the following strains Enterococcus faecalis, Staphylococcus aureus, Pseudomonas aeruginosa, Candida albicans, where appropriate.

CCOc1cc(CCC(C)=O)ccc1O [A, 4-(3-ethoxy-4-hydroxyphenyl)butan-2-one]
microbial growth percentage ([1]; 0.0625 A, 0 B3 weight %): 70% | microbial growth percentage ([1]; 0.0625 A, 0 B4 weight %): 44% | microbial growth percentage ([1]; 0.0625 A, 0 B6 weight %): 35% | microbial growth percentage ([1]; 0.125 A, 0 B3 weight %): 31% | microbial growth percentage ([1]; 0.125 A, 0 B4 weight %): 39% | microbial growth percentage ([1]; 0.125 A, 0 B6 weight %): 43% | microbial growth percentage ([1]; 0.25 A, 0 B3 weight %): 27% | microbial growth percentage ([1]; 0.25 A, 0 B4 weight %): 38% | microbial growth percentage ([1]; 0.25 A, 0 B6 weight %): 34% | microbial growth percentage ([1]; 0.5 A, 0 B3 weight %): 14% | microbial growth percentage ([1]; 0.5 A, 0 B4 weight %): 12% | microbial growth percentage ([1]; 0.5 A, 0 B6 weight %): 0% | % MIC of A alone ([1]; Example 3): 0.5% | % MIC of A alone ([1]; Example 4): 0.5% | % MIC of A alone ([1]; Example 6): 0.5% | microbial growth percentage ([2]; 0.025 A, 0 B1 weight %): 82% | microbial growth percentage ([2]; 0.025 A, 0 B3 weight %): 45% | microbial growth percentage ([2]; 0.025 A, 0 B5 weight %): 55% | microbial growth percentage ([2]; 0.05 A, 0 B1 weight %): 43% | microbial growth percentage ([2]; 0.05 A, 0 B3 weight %): 35% | microbial growth percentage ([2]; 0.05 A, 0 B5 weight %): 32% | microbial growth percentage ([2]; 0.1 A, 0 B1 weight %): 5% | microbial growth percentage ([2]; 0.1 A, 0 B3 weight %): 14% | microbial growth percentage ([2]; 0.1 A, 0 B5 weight %): 16% | % MIC of A alone ([2]; Example 1): 0.1% | % MIC of A alone ([2]; Example 3): 0.1% | % MIC of A alone ([2]; Example 5): 0.1% | microbial growth percentage ([3]; 0.0625 A, 0 B4 weight %): 63% | microbial growth percentage ([3]; 0.0625 A, 0 B6 weight %): 80% | microbial growth percentage ([3]; 0.125 A, 0 B4 weight %): 60% | microbial growth percentage ([3]; 0.125 A, 0 B6 weight %): 63% | microbial growth percentage ([3]; 0.25 A, 0 B4 weight %): 64% | microbial growth percentage ([3]; 0.25 A, 0 B6 weight %): 56% | microbial growth percentage ([3]; 0.5 A, 0 B4 weight %): 62% | microbial growth percentage ([3]; 0.5 A, 0 B6 weight %): 61% | microbial growth percentage ([3]; 1 A, 0 B4 weight %): 7% | microbial growth percentage ([3]; 1 A, 0 B6 weight %): −17% | % MIC of A alone ([3]; Example 4): 1% | % MIC of A alone ([3]; Example 6): 1%
